Results taken from patent US9115147B2, “Tricyclic derivatives and their pharmaceutical use and compositions” (Cephalon, Inc., priority 2009, dated 2015).

biological target: T1, human 5-HT6 receptor (Homo sapiens, UniProt P50406); experiment: Human 5-HT6 Receptor Binding Assay ([3H]LSD, scintillation beads); conditions: actual data; membranes of CHO-K1 cells with recombinant human 5-HT6 receptor, 4 nM [3H]LSD; read-out: Human 5-HT6 Ki
T1 construct: host or cells: CHO-K1 cells, stably transfected; membranes prepared in house
T1 sequence (P50406 whole entry): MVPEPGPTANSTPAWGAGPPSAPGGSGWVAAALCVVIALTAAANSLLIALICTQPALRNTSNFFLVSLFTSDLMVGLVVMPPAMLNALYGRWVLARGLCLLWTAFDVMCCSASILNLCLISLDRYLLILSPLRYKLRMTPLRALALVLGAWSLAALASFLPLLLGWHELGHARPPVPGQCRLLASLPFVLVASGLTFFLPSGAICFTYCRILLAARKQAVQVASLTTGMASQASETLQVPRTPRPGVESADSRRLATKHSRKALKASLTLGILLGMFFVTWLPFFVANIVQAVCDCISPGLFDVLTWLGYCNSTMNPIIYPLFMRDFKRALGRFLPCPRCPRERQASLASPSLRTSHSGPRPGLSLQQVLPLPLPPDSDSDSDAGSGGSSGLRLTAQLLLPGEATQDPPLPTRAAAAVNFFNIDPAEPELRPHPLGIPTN
Procedure: Human 5-HT6 Receptor Binding Assay
Membranes were prepared from CHO-K1 cells stably transfected with the human 5-HT6 receptor (Euroscreen; ES-316-C). The cells were grown in Gibco Advanced DMEM-F12 (Cat#12634010) containing 2% dialyzed FBS (Hyclone Cat#SH30079.03). The cells were harvested in phosphate buffered saline (PBS) containing 0.1 mM EDTA and pelleted by centrifugation (1000×g), the supernatant was discarded and the pellets were stored at −80° C. prior to membrane preparation. Membranes were prepared as previously described (J Bio Chem. 1992, 267 (14) 9844-51). Briefly, frozen cell pellet was resuspended in a lysis buffer containing 5 mM Tris-HCl (pH 7.5), 5 mM EDTA and 1 complete EDTA-free protease inhibitor tablet (Roche Applied Science, Indianapolis, Ind.) per 50 mL buffer, and homogenized with a tissue homogenizer. The cell lysate was then centrifuged at 40,000×g for 30 min at 4° C. to collect the membranes. The membrane pellets were washed in membrane buffer (50 mM Tris-HCl (pH 7.5), 0.6 mM EDTA, 5 mM MgCl2, 1 complete EDTA-free protease inhibitor tablet per 50 mL buffer) using a tissue homogenizer. The membranes were centrifuged at 40,000×g for 30 min at 4° C. and the pellets were resuspended in membrane buffer containing 250 mM sucrose, and protein concentration was determined using the Coomassie Plus kit (Pierce Biotechnology, Rockford, Ill.).
Membranes prepared from cells expressing recombinant human 5-HT6 receptor (h5-HT6) were resuspended in assay buffer containing 50 mM Tris HCl, (pH7.4), 4 mM CaCl2, 10 μg/mL saponin, and 0.1% (w/v) ascorbic acid. Membranes were preincubated using 1.75 μg membrane protein and 0.25 mg FlashBlue scintillation beads (PerkinElmer catalogue #FB001) per well at 4° C. for 30 min. […] Test compounds or assay controls for total and non-specific binding were diluted in DMSO as 100× solutions and serially diluted by half log concentrations on a Perkin Elmer JANUS Automated Workstation. Serotonin (10 μM final concentration) was used to determine non-specific binding in the assay. Plates were read using the Microbeta Trilux 1450 LSC and luminescence counter. Data were analyzed by nonlinear […] using the dose-response equation (variable slope) to calculate IC50 in XLfit4 (ID Business Solutions Inc.): y=(Bottom+((Top−Bottom)/(1+((IC50/x)^Hill slope))))
Ki value was then calculated according to the Cheng-Prusoff method using the equation below (Cheng and Prusoff, 1973): Ki, app=IC50/(1+([radioligand]/Kd))

Structure (SMILES) | Ki
CC(C)N1CCC2c3ccc(S(=O)(=O)c4ccccc4)cc3OCC21 (single isomer, unassigned) [Example 57, 7-(phenylsulfonyl)-3-(propan-2-yl)-1,2,3,3a,4,9b-hexahydrochromeno[3,4-b]pyrrole] | 0.504 µM

same assay, conditions: membranes of CHO-K1 cells with recombinant human 5-HT6 receptor, 4 nM [3H]LSD, Cheng-Prusoff; read-out: Human 5-HT6 Ki app

Structure (SMILES) | Ki
CN(C)C(=O)c1cccc(S(=O)(=O)c2ccc3c(c2)OC[C@H]2NCC[C@@H]32)c1 (single isomer, unassigned) [Example 38] | < 0.5 µM
O=S(=O)(c1ccc2c(c1)OCC1NCCC21)c1cccc2c1CCO2 (single isomer, unassigned) [Example 45, 7-(2,3-dihydro-1-benzofuran-4-ylsulfonyl)-1,2,3,3a,4,9b-hexahydrochromeno[3,4-b]pyrrole] | < 0.5 µM
CN(C)C(=O)c1cccc(S(=O)(=O)c2ccc3c(c2)OC[C@@H]2NCC[C@H]32)c1 (single isomer, unassigned) [Example 46] | < 0.5 µM
O=S(=O)(c1cncc(C(F)(F)F)c1)c1ccc2c(c1)OCC1NCCC21 (single isomer, unassigned) [Example 51, 7-{[5-(trifluoromethyl)pyridin-3-yl]sulfonyl}-1,2,3,3a,4,9b-hexahydrochromeno[3,4-b]pyrrole] | < 0.5 µM
O=S(=O)(c1ccccc1)c1ccc2c(c1)C1CCNC1CO2 (single isomer, unassigned) [Example 53, 8-(phenylsulfonyl)-1,2,3,3a,4,9b-hexahydrochromeno[3,4-b]pyrrole] | < 0.5 µM
O=S(=O)(c1ccccc1)c1ccc2c(c1)C1CCNC1CO2 (single isomer, unassigned) [Example 54, 8-(phenylsulfonyl)-1,2,3,3a,4,9b-hexahydrochromeno[3,4-b]pyrrole] | < 0.5 µM
O=S(=O)(c1ccccc1)c1ccc2c(c1)OCC1NCCC21 (single isomer, unassigned) [Example 55, 7-(phenylsulfonyl)-1,2,3,3a,4,9b-hexahydrochromeno[3,4-b]pyrrole] | < 0.5 µM
CC(C)N1CCC2c3ccc(S(=O)(=O)c4ccccc4)cc3OCC21 (single isomer, unassigned) [Example 57, 7-(phenylsulfonyl)-3-(propan-2-yl)-1,2,3,3a,4,9b-hexahydrochromeno[3,4-b]pyrrole] | 0.5 to 1 µM
CC(C)N1CCC2c3ccc(S(=O)(=O)c4ccccc4)cc3OCC21 (single isomer, unassigned) [Example 58, 7-(phenylsulfonyl)-3-(propan-2-yl)-1,2,3,3a,4,9b-hexahydrochromeno[3,4-b]pyrrole] | > 1 µM
O=S(=O)(c1ccccc1)c1ccc2c(c1)OCC1C2CCN1C1CCC1 (single isomer, unassigned) [Example 59, 3-cyclobutyl-7-(phenylsulfonyl)-1,2,3,3a,4,9b-hexahydrochromeno[3,4-b]pyrrole] | 0.5 to 1 µM
O=S(=O)(c1ccccc1)c1ccc2c(c1)OCC1C2CCN1C1CCC1 (single isomer, unassigned) [Example 60, 3-cyclobutyl-7-(phenylsulfonyl)-1,2,3,3a,4,9b-hexahydrochromeno[3,4-b]pyrrole] | > 1 µM
O=S(=O)(c1ccccc1)c1ccc2c(c1)OCC1C2CCN1C1CCCC1 (single isomer, unassigned) [Example 61, 3-cyclopentyl-7-(phenylsulfonyl)-1,2,3,3a,4,9b-hexahydrochromeno[3,4-b]pyrrole] | < 0.5 µM
O=S(=O)(c1ccccc1)c1ccc2c(c1)OCC1C2CCN1C1CCCC1 (single isomer, unassigned) [Example 62, 3-cyclopentyl-7-(phenylsulfonyl)-1,2,3,3a,4,9b-hexahydrochromeno[3,4-b]pyrrole] | > 1 µM
O=S(=O)(c1ccccc1)c1ccc2c(c1)OCC1C2CCN1C1CCCCC1 (single isomer, unassigned) [Example 63, 3-cyclohexyl-7-(phenylsulfonyl)-1,2,3,3a,4,9b-hexahydrochromeno[3,4-b]pyrrole] | < 0.5 µM
O=S(=O)(c1ccccc1)c1ccc2c(c1)OCC1C2CCN1C1CCCCC1 (single isomer, unassigned) [Example 64, 3-cyclohexyl-7-(phenylsulfonyl)-1,2,3,3a,4,9b-hexahydrochromeno[3,4-b]pyrrole] | > 1 µM
O=S(=O)(c1ccccc1)c1ccc2c(c1)OCC1C2CCN1C1CCOC1 (single isomer, unassigned) [Example 65, 7-(phenylsulfonyl)-3-(tetrahydrofuran-3-yl)-1,2,3,3a,4,9b-hexahydrochromeno[3,4-b]pyrrole] | 0.5 to 1 µM
O=S(=O)(c1ccccc1)c1ccc2c(c1)OCC1C2CCN1C1CCOC1 (single isomer, unassigned) [Example 66, 7-(phenylsulfonyl)-3-(tetrahydrofuran-3-yl)-1,2,3,3a,4,9b-hexahydrochromeno[3,4-b]pyrrole] | > 1 µM
O=S(=O)(c1ccccc1)c1ccc2c(c1)OCC1C2CCN1CC(F)F (single isomer, unassigned) [Example 67, 3-(2,2-difluoroethyl)-7-(phenylsulfonyl)-1,2,3,3a,4,9b-hexahydrochromeno[3,4-b]pyrrole] | < 0.5 µM
O=S(=O)(c1ccccc1)c1ccc2c(c1)OCC1C2CCN1C1CCOCC1 (single isomer, unassigned) [Example 68, 7-(phenylsulfonyl)-3-(tetrahydro-2H-pyran-4-yl)-1,2,3,3a,4,9b-hexahydrochromeno[3,4-b]pyrrole] | < 0.5 µM

Continued, values first:

Ki | Structure (SMILES)
< 0.5 µM | CC(C)COc1cc(F)cc(S(=O)(=O)c2ccc3c(c2)OCC2NCCC32)c1 (single isomer, unassigned) [Example 39, 7-{[3-fluoro-5-(2-methylpropoxy)phenyl]sulfonyl}-1,2,3,3a,4,9b-hexahydrochromeno[3,4-b]pyrrole]
< 0.5 µM | CCOc1cc(F)cc(S(=O)(=O)c2ccc3c(c2)OCC2NCCC32)c1 (single isomer, unassigned) [Example 40, 7-[(3-ethoxy-5-fluorophenyl)sulfonyl]-1,2,3,3a,4,9b-hexahydrochromeno[3,4-b]pyrrole]
< 0.5 µM | O=S(=O)(c1ccc2c(c1)OCC1NCCC21)c1cccc(F)c1F (single isomer, unassigned) [Example 41, 7-[(2,3-difluorophenyl)sulfonyl]-1,2,3,3a,4,9b-hexahydrochromeno[3,4-b]pyrrole]
< 0.5 µM | O=S(=O)(c1ccc2c(c1)OCC1NCCC21)c1cc(F)cc(F)c1F (single isomer, unassigned) [Example 42, 7-[(2,3,5-trifluorophenyl)sulfonyl]-1,2,3,3a,4,9b-hexahydrochromeno[3,4-b]pyrrole]
< 0.5 µM | CC(C)Oc1cc(F)cc(S(=O)(=O)c2ccc3c(c2)OCC2NCCC32)c1 (single isomer, unassigned) [Example 43, 7-{[3-fluoro-5-(propan-2-yloxy)phenyl]sulfonyl}-1,2,3,3a,4,9b-hexahydrochromeno[3,4-b]pyrrole]
< 0.5 µM | COc1cc(F)cc(S(=O)(=O)c2ccc3c(c2)OCC2NCCC32)c1 (single isomer, unassigned) [Example 44, 7-[(3-fluoro-5-methoxyphenyl)sulfonyl]-1,2,3,3a,4,9b-hexahydrochromeno[3,4-b]pyrrole]
< 0.5 µM | CC(C)COc1cc(F)cc(S(=O)(=O)c2ccc3c(c2)OCC2NCCC32)c1 (single isomer, unassigned) [Example 47, 7-{[3-fluoro-5-(2-methylpropoxy)phenyl]sulfonyl}-1,2,3,3a,4,9b-hexahydrochromeno[3,4-b]pyrrole]
< 0.5 µM | CCOc1cc(F)cc(S(=O)(=O)c2ccc3c(c2)OCC2NCCC32)c1 (single isomer, unassigned) [Example 48, 7-[(3-ethoxy-5-fluorophenyl)sulfonyl]-1,2,3,3a,4,9b-hexahydrochromeno[3,4-b]pyrrole]
< 0.5 µM | O=S(=O)(c1ccc2c(c1)OCC1NCCC21)c1cccc(F)c1F (single isomer, unassigned) [Example 49, 7-[(2,3-difluorophenyl)sulfonyl]-1,2,3,3a,4,9b-hexahydrochromeno[3,4-b]pyrrole]
< 0.5 µM | O=S(=O)(c1ccc2c(c1)OCC1NCCC21)c1cc(F)cc(F)c1F (single isomer, unassigned) [Example 50, 7-[(2,3,5-trifluorophenyl)sulfonyl]-1,2,3,3a,4,9b-hexahydrochromeno[3,4-b]pyrrole]
0.5 to 1 µM | O=S(=O)(c1cncc(C(F)(F)F)c1)c1ccc2c(c1)OCC1NCCC21 (single isomer, unassigned) [Example 52, 7-{[5-(trifluoromethyl)pyridin-3-yl]sulfonyl}-1,2,3,3a,4,9b-hexahydrochromeno[3,4-b]pyrrole]
